Results reported in patent EP0044212B1, “Herbicidal o-alkylsulfonyloxy- and o-alkylsulfonylamino-benzenesulfonamides” (E.I. DU PONT DE NEMOURS AND COMPANY, priority 1980, dated 1982).

What was measured:
Sunflower = experiment: Test C pre-emergence on Fallsington silt loam soil; type: in vivo; conditions: 0.03 kg/ha, 28 days
Source text: (§1) The high herbicidal activity of two of the compounds from within the scope of the invention is evident from the results obtained in this test. The experiment concerned pre-emergence applications on soil. The containers used were 25 cm diameter plastic pots filled with Fallsington silt loam. One set of pots was planted to weeds, the seeds of which were uniformly mixed with the top 1.2 cm layer of soil. The species selected were: johnsongrass (Sorghum halepense), barnyardgrass (Echinochloa crusgalli), crabgrass (Digitaria sanguinalis), giant foxtail (Setaria faberii), velvetleaf (Abutilon theophrasti), jimsonweed (Datura stramonium), mustard (Brassica arvensis), and pigweed (Amaranthus retroflexus). Another set of pots were planted to the following crops with from one to four species per pot: corn (planting depth 3.7 cm), cotton, soybeans, sunflower, Clinton oats, wheat, Black Valentine beans, rice, sorghum, peas, flax, and peanuts (all at 2.5 cm depth), cucumbers, cabbage, alfalfa, safflower, sugarbeets, tomato, spinach, barley, and Kentucky bluegrass (all at 1.2 cm depth). Immediately after planting, the test chemical was applied to the soil surfaces dissolved in a non-phytotoxic solvent. One pot from the weed phase and one of each of the crop species were left untreated for the purpose of comparison. The treated and untreated pots were promptly watered with approximatley 4 mm of simultated rainfall and then held in a greenhouse for several weeks. Visual weed and crop response ratings were made 28 days after treatment utilizing the rating system as described above for Test A. The data are given in Table C.

Barley = experiment: Test C pre-emergence on Fallsington silt loam soil; type: in vivo; conditions: 0.03 kg/ha, 28 days
Source text: as §1

Tomato = experiment: Test C pre-emergence on Fallsington silt loam soil; type: in vivo; conditions: 0.03 kg/ha, 28 days
Source text: as §1

Rice = experiment: Test C pre-emergence on Fallsington silt loam soil; type: in vivo; conditions: 0.03 kg/ha, 28 days
Source text: as §1

Bean = experiment: Test C pre-emergence on Fallsington silt loam soil; type: in vivo, Black Valentine beans; conditions: 0.03 kg/ha, 28 days
Source text: as §1, with “The treated and untreated pots were promptly watered with approximatley 4 mm of simultated rainfall and then held in a greenhouse for several weeks. Visual weed and crop response ratings were made 28 days after treatment utilizing the rating system as described above for Test A. The data are given in Table C.” left out

Soybean = experiment: Test C pre-emergence on Fallsington silt loam soil; type: in vivo, soybeans; conditions: 0.03 kg/ha, 28 days
Source text: as §1, with “The treated and untreated pots were promptly watered with approximatley 4 mm of simultated rainfall and then held in a greenhouse for several weeks. Visual weed and crop response ratings were made 28 days after treatment utilizing the rating system as described above for Test A. The data are given in Table C.” left out

Cucumber = experiment: Test C pre-emergence on Fallsington silt loam soil; type: in vivo, cucumbers; conditions: 0.03 kg/ha, 28 days
Source text: as §1, with “The treated and untreated pots were promptly watered with approximatley 4 mm of simultated rainfall and then held in a greenhouse for several weeks. Visual weed and crop response ratings were made 28 days after treatment utilizing the rating system as described above for Test A. The data are given in Table C.” left out

Mustard = experiment: Test G broadleaf herbicidal properties, overall spray; type: in vivo; conditions: 0.015 kg/ha, 22 days after treatment
Method: (§2) Approximately 12 soybean plants were grown in a 25 cm. diameter plastic pot. In another pot of equal size the following broadleaf plant species were grown: sugarbeets, velvetleaf, Sesbania, Cassia, mustard, morningglory, alfalfa, jimsonweed, and cocklebur. The plant foliage and surrounding soil were treated with the test chemical dissolved in a non-phytotoxic solvent as an overall spray at the rate of 0.015 kg/ha, when the plants were 17 days old. Visual ratings of herbicidal effects were made 22 days after treatment utilizing the rating system described for Test A.

Sugarbeets = experiment: as above; type: in vivo; conditions: 0.015 kg/ha, 22 days after treatment
Method: as §2

Jimsonweed = experiment: as above; type: in vivo; conditions: 0.015 kg/ha, 22 days after treatment
Method: as §2

Velvetleaf = experiment: Test F over-the-top soil/foliage treatment; type: in vivo, Abutilon theophrasti; conditions: soil/foliage spray, ~14 days
Method: The test chemicals, dissolved in a non-phytotoxic solvent, were applied in an overall spray to the foliage and surrounding […] of selected plant species. […] Approximately fourteen days after treatment, all species were visually compared to untreated controls and rated for response to treatment.
All plant species were seeded in Woodstown sandy loam soil and grown in a greenhouse. The following species were grown in soil contained in plastic pots (25 cm diameter by 13 cm deep): soybeans, cotton, alfalfa, corn, rice, wheet, sorghum, velvetleaf (Abutilon theophrasti), sesbania (Sesbania exaltata), Cassia (Cassia tora), morningglory (Ipomoea hederacea), jimsonweed (Datura stramonium), cocklebur (Xanthium pensylvanicum), crabgrass (Digitaria spp.), nutsedge (Cyperus rotundus), barnyardgrass (Echinochloa crusgalli), giant foxtail (Setaria faberii) and wild oats (Avena fatua). The following species were grown in soil in a paper cup (12 cm diameter by 13 cm deep): sunflower, sugarbeets, and mustard. All plants were sprayed approximately 14 days after planting.

Blackgrass = experiment: Test D pre-/post-emergence weed control in cereals; type: in vivo, Alopecurus myosuroides; conditions: 0.015 kg/ha, 20 days
Source text: (§3) Two ten-inch in diameter plastic pans lined with polyethylene liners were filled with prepared Fallsington slit loam soil. One pan was planted with seeds of wheat (Triticum aestivum), barley (Hordeum vulgarel, wild oats (Avena fatua), downy brome (Bromus tectorum), cheatgrass (Bromus secalinus), blackgrass (Alopecurus myosuroides), annual bluegrass (Poa annual, green foxtail (Setaria viridis), quack grass (Agropyron repens), Italian ryegrass (Lolium multiflorum) and ripgut brome (Bromus rigidus). The other pan was planted with seeds of Russian thistle (Salsola kali), tansy mustard (Descuraina pinnata), smartweed (Polygonum pensylvanicum), tumble mustard (Sisymbrium altissium) kochia (Kochia scoparia), shepherd's purse (Capsella bursa-pastoris), Matricaria inodora, black nightshade (Solanum nigrum), yellow rocket (Barbarea vulgaris), wild mustard (Brassica kaber) and wild buckwheat (Polygonum convolvulus). The above two pans were treated pre-emergence. At the same time two pans in which the above plant species were growing were treated post-emergence. […]
(§4) The compounds applied were diluted with a non-phytotoxic solvent and sprayed over-the-top of the pans. […] The recorded data, presented in Table D, indicate that certain compounds from within the scope of the invention have utility for pre- and/or post-emergence weed control in cereal crops such as wheat and barley.

Arrowhead = experiment: Test E application to paddy water after transplanting of rice; type: in vivo, Sagittaria spp.
Source text: Test samples were formulated and applied directly to the paddy water three days after transplanting of rice. The test was maintained in a greenhouse, and plant response ratings were taken at the stated intervals after application.

Downy Brome = experiment: Test D pre-/post-emergence weed control in cereals; type: in vivo, Bromus tectorum; conditions: 20 days
Source text: (§5) Two ten-inch in diameter plastic pans lined with polyethylene liners were filled with prepared Fallsington slit loam soil. One pan was planted with seeds of wheat (Triticum aestivum), barley (Hordeum vulgarel, wild oats (Avena fatua), downy brome (Bromus tectorum), cheatgrass (Bromus secalinus), blackgrass (Alopecurus myosuroides), annual bluegrass (Poa annual, green foxtail (Setaria viridis), quack grass (Agropyron repens), Italian ryegrass (Lolium multiflorum) and ripgut brome (Bromus rigidus). The other pan was planted with seeds of Russian thistle (Salsola kali), tansy mustard (Descuraina pinnata), smartweed (Polygonum pensylvanicum), tumble mustard (Sisymbrium altissium) kochia (Kochia scoparia), shepherd's purse (Capsella bursa-pastoris), Matricaria inodora, black nightshade (Solanum nigrum), yellow rocket (Barbarea vulgaris), wild mustard (Brassica kaber) and wild buckwheat (Polygonum convolvulus). The above two pans were treated pre-emergence. At the same time two pans in which the above plant species were growing were treated post-emergence. Plant height at the time of treatment ranged from 1-15 cm depending on plant species.
(§6) The compounds applied were diluted with a non-phytotoxic solvent and sprayed over-the-top of the pans. An untreated control and a solvent alone control were included for comparison. All treatments were maintained in the greenhouse for 20 days at which time the treatments were compared to the controls and the effects visually rated. The recorded data, presented in Table D, indicate that certain compounds from within the scope of the invention have utility for pre- and/or post-emergence weed control in cereal crops such as wheat and barley.

Tumble Mustard = experiment: Test D pre-/post-emergence weed control in cereals; type: in vivo, Sisymbrium altissium; conditions: 20 days
Source text: as §5, §6

Yellow Rocket = experiment: Test D pre-/post-emergence weed control in cereals; type: in vivo, Barbarea vulgaris; conditions: 0.06 kg/ha, 20 days
Source text: as §3, §4

Shepherd's Purse = experiment: Test D pre-/post-emergence weed control in cereals; type: in vivo, Capsella bursa-pastoris; conditions: 20 days
Source text: as §3, §4

Annual Bluegrass = experiment: Test D pre-/post-emergence weed control in cereals; type: in vivo, Poa annual; conditions: 20 days
Source text: as §5, §6

Wild Oats = experiment: Test D pre-/post-emergence weed control in cereals; type: in vivo, Avena fatua; conditions: 20 days
Source text: as §5, §6

## COc1cc(OC)nc(NC(=O)NS(=O)(=O)c2ccccc2OS(C)(=O)=O)n1 [Compound 1, N-[(4,6-Dimethoxypyrimidin-2-yl)aminocarbonyl]-2-hydroxybenzenesulfonamide, methanesulfonate]
Sunflower
  Sunflower response rating: 5G
Barley
  Barley response rating: 3G
Tomato
  Tomato response rating: 4G
Rice
  Rice response rating: 6G
Bean
  Bean response rating: 0
Soybean
  Soybean response rating: 4G, 2lH
Cucumber
  Cucumber response rating: 5G

## CCCS(=O)(=O)Oc1ccccc1S(=O)(=O)NC(=O)Nc1nc(C)nc(OC)n1 [Compound 39, 2-hydroxy-N-[(4-methoxy-6-methyl-1,3,5-triazin-2-yl)aminocarbonyl]benzenesulfonamide, 1-propanesulfonate]
Mustard
  Mustard response rating: 10C
Sugarbeets
  Sugarbeets response rating: 9G
Jimsonweed
  Jimsonweed response rating: 0

## Cc1cc(C)nc(NC(=O)NS(=O)(=O)c2ccccc2OS(C)(=O)=O)n1 [Compound 3, N-[(4,6-dimethylpyrimidin-2-yl)aminocarbonyl]-2-hydroxybenzenesulfonamide, methanesulfonate]
Velvetleaf; 0.003 kg/ha
  Velvetleaf response rating: 7G
Velvetleaf; 0.015 kg/ha
  Velvetleaf response rating: 5G

## CCCS(=O)(=O)Oc1ccccc1S(=O)(=O)NC(=O)Nc1nc(OC)cc(OC)n1 [Compound 36, N-[(4,6-dimethoxypropimidin-2-yl)aminocarbonyl]-2-hydroxybenzenesulfonamide, 1-propanesulfonate]
Blackgrass; Post-Emergence
  Blackgrass response rating: 2G
Blackgrass; Pre-Emergence
  Blackgrass response rating: 6G
Arrowhead; 25 g/ha in paddy water
  Arrowhead*** 8 Weeks: 0
Arrowhead; 100 g/ha in paddy water
  Arrowhead*** 8 Weeks: 0
Downy Brome; Post-Emergence, 0.015 kg/ha
  Downy Brome response rating: 0
Downy Brome; Post-Emergence, 0.06 kg/ha
  Downy Brome response rating: 3G
Downy Brome; Pre-Emergence, 0.015 kg/ha
  Downy Brome response rating: 3G
Downy Brome; Pre-Emergence, 0.06 kg/ha
  Downy Brome response rating: 6G
Tumble Mustard; Post-Emergence, 0.015 kg/ha
  Tumble Mustard response rating: 10C
Tumble Mustard; Post-Emergence, 0.06 kg/ha
  Tumble Mustard response rating: 10C
Tumble Mustard; Pre-Emergence, 0.015 kg/ha
  Tumble Mustard response rating: 5G
Yellow Rocket; Post-Emergence
  Yellow Rocket response rating: 10C
Yellow Rocket; Pre-Emergence
  Yellow Rocket response rating: 10C
Shepherd's Purse; Post-Emergence, 0.06 kg/ha
  Shepherd's Purse response rating: 10C
Shepherd's Purse; Pre-Emergence, 0.015 kg/ha
  Shepherd's Purse response rating: 7G
Annual Bluegrass; Post-Emergence, 0.015 kg/ha
  Annual Bluegrass response rating: 2G
Annual Bluegrass; Post-Emergence, 0.06 kg/ha
  Annual Bluegrass response rating: 3G
Annual Bluegrass; Pre-Emergence, 0.015 kg/ha
  Annual Bluegrass response rating: 6G
Wild Oats; Post-Emergence, 0.015 kg/ha
  Wild Oats response rating: 0
Wild Oats; Post-Emergence, 0.06 kg/ha
  Wild Oats response rating: 0
Wild Oats; Pre-Emergence, 0.015 kg/ha
  Wild Oats response rating: 0
Wild Oats; Pre-Emergence, 0.06 kg/ha
  Wild Oats response rating: 0
